Results from patent publication US6242482A, “Prostaglandin compounds and derivatives thereof, compositions containing the same and method of using the same for the treatment of congestive heart failure” (priority 2000, dated 2001).
“And” between values parts separate entries of the source, which are not always exact repeats. Equal values may be shown once. “Also recorded” adds a separate entry of the source. Read-outs that look alike come from different tables or passages of the source.

Assays:
[1] = system: Human Platelet Aggregation (collagen-induced); assay: Anti-aggregatory response, 1 min incubation with PRP, collagen-induced (Example 4); type: cell-based; conditions: 1 min with PRP; for Platelet Aggregation (mean): collagen 1 μg/ml
Protocol: (§1) Blood from healthy human volunteers who had not taken any medicine for at least 14 days was collected by venopuncture into 3.15% (w/v) tri-sodium citrate (9:1 v/v). The blood was centrifuged at 800 g for 15 minutes to produce PRP. The PRP was further centrifuged at 12,000 g for 1 minute to produce PPP.
(§2) Platelet aggregation was measured using a dual channel Payton aggregometer calibrated with PRP (0%) and PPP (100%) with respect to the degree of light transmission. Aliquots of PRP (500 μl) were added to siliconized cuvettes, stirred (1000 revs/min) and warmed to 37° C. The platelets were incubated for 1 minute to establish a stable baseline prior to testing. A submaximal concentration of the aggregating agent collagen (1 μg/ml) was added to the PRP and the platelet aggregation was monitored as the increase in light transmission observed over a 4 minute period.
The percent inhibition of the platelet aggregation was calculated using the peak increase in light transmission observed over the 4 minute period following the addition of collagen, as compared to that of the control. This experiment was repeated using PRP from at least three human volunteers.

[2] = system: Human Platelet Aggregation (collagen-induced); assay: Anti-aggregatory response after incubation with aqueous vehicle (acetate buffer) (Example 4); type: cell-based
Protocol: as §1, §2
(§3) After the incubation period, a 50 μl aliquot of the aqueous vehicle with the corresponding sample compound was added to fresh PRP (450 μl) for determination of anti-aggregatory activity following challenge with collagen. This experiment was repeated using PPP from at least three human volunteers. […] The data in both Tables 2 and 3 are shown as the mean and the standard error of n number of donors.

[3] = system: Human Platelet Aggregation (collagen-induced); assay: Anti-aggregatory response after incubation with human PPP (Example 4); type: cell-based
Protocol: as §1, §2, §3

[4] = system: Human Platelet Aggregation (collagen-induced); assay: Anti-aggregatory activity, 1 min incubation with PRP, collagen-induced (Example 8); type: cell-based; conditions: 1 minute with PRP
Protocol: as §1, with “PPP. A total of 12 volunteers donated blood for the study.” for “PPP.”
as §2, with “studied” for “measured”, “investigation.” for “testing.”
The percentage inhibition of the platelet aggregation was calculated using the peak increase in light transmission observed over the 4 minute period following addition of collagen, as compared to that of control. This experiment was repeated using PRP from at least three human volunteers for each compound under study.

[5] = system: Human Platelet Aggregation (collagen-induced); assay: Anti-aggregatory response after incubation with PPP (Example 8); type: cell-based; conditions: up to 4 hours at 37° C
Protocol: as §1, with “PPP. A total of 12 volunteers donated blood for the study.” for “PPP.”
as §2, with “studied” for “measured”, “investigation.” for “testing.”
(§4) After the incubation period, an aliquot of the PPP or aqueous vehicle (50 μl) was added to fresh PRP (450 μl) for determination of anti-platelet activity. This experiment was repeated using PPP from at least three human volunteers for each compound.

[6] = system: Human Platelet Aggregation (collagen-induced); assay: Anti-aggregatory response after incubation with aqueous vehicle (Example 8); type: cell-based; conditions: up to 4 hours at 37° C
Protocol: as §1, with “PPP. A total of 12 volunteers donated blood for the study.” for “PPP.”
as §2, with “studied” for “measured”, “investigation.” for “testing.”
as §4

[7] = system: mean arterial pressure and heart rate of anesthetized rats; assay: Systemic hemodynamic effects, intravenous, anesthetized rats (Example 5); type: in vivo, rat (male Wistar)
Protocol: The time for onset and maximal response were evaluated, as well as the time taken for the response to return to 50% of the baseline value for comparing effective lives. Among other effects, lowering of the blood pressure inside the blood vessels is beneficial for the treatment of congestive heart failure by reducing the vascular resistance blood flow, and thus the work load imposed on the heart.
Male Wistar rats were anesthetized with thiopentone sodium (INTRAVAL®, 120 mg kg^-1 i.p.). The trachea was cannulated to facilitate breathing. The right carotid artery was cannulated and connected to a pressure transducer (Spectramed P23XL), for the measurement of mean arterial pressure (MAP) and heart rate (HR) which were continuously recorded on a 4-channel Grass 7D polygraph recorder (Grass, Mass., USA). The left femoral vein or the right jugular vein was cannulated for the administration of drugs. The body temperature of the test animal was maintained at 37±1° C. by means of a rectal probe thermometer attached to a homeothermic blanket control unit (Harvard Apparatus Ltd).
After a 15 minute stabilization period, the animals were injected once intravenously with selected doses of each compound, and hemodynamic parameters were continuously monitored for three hours in order to ascertain the duration of action of the compounds under study.

[8] = system: mean arterial pressure and heart rate of anesthetized rats; conditions: for Time of Δmax (superscript) / t1/2 / Δmax (Mean Arterial Pressure): Table 4; for Mean Arterial Pressure: 0,1,5,10,15,30,60,120,180,240,360 min
Protocol: Male Wistar rats (250-330 g) were anesthetized with thiopentone sodium (INTRAVAL®, 120 mg/kg i.p.). The trachea was cannulated to facilitate respiration. The right carotid artery was cannulated and connected to a pressure transducer (Spectramed P23XL), for the measurement of mean arterial pressure (MAP) and heart rate (HR) which were continuously recorded on a 4-channel Grass 7D polygraph recorder (Grass, Mass., U.S.A.). Body temperature was maintained at 37±1°C. by means of a rectal probe thermometer attached to a homeothermic blanket control unit (Harvard Apparatus Ltd.).

[9] = i.v., Compound X 0.1 and 1 mg/kg, Compound 1 doses of b230

CCCCC[C@H](O)CC[C@@H]1[C@H]2Cc3cccc(OCC(=O)O)c3C[C@H]2C[C@H]1O [Compound X]
Platelet Aggregation (mean) ([1]; 1 ng/ml final): 101 % of Control | Platelet Aggregation (mean) ([1]; 3 ng/ml final): 98 % of Control | Platelet Aggregation (mean) ([1]; 10 ng/ml final): 60 % of Control | Platelet Aggregation (mean) ([1]; 30 ng/ml final): 1 % of Control | Platelet Aggregation (mean) ([1]; 100 ng/ml final): 1 % of Control | inhibition of aggregation response at highest concentrations ([1]; Compound X 30 and 100 ng/ml, Compound 1 3 mg/ml, Compound 3 10 mg/ml): completely inhibited the aggregation response | concentration inhibiting aggregation by 50% (ID50) ([1]; collagen): 0.02 µg/mL | inhibition of platelet aggregation, concentration dependence ([1]; collagen): concentration-dependentinhibition of collagen-induced platelet aggregation | Platelet Aggregation (mean) ([2]; 3 ng/ml final, 1 Hour in acetate buffer): 107 % of Control | Platelet Aggregation (mean) ([2]; 3 ng/ml final, 4 Hours in acetate buffer): 94 % of Control | Platelet Aggregation (mean) ([2]; 3 ng/ml final, 15 Minutes in acetate buffer): 98 % of Control | Platelet Aggregation (mean) ([2]; 30 ng/ml final, 1 Hour in acetate buffer): 8 % of Control | Platelet Aggregation (mean) ([2]; 30 ng/ml final, 4 Hours in acetate buffer): 8 % of Control | Platelet Aggregation (mean) ([2]; 30 ng/ml final, 15 Minutes in acetate buffer): 3 % of Control | effect of incubation with aqueous vehicle on anti-platelet activity ([2]; 15 minutes, 1 hour and 4 hours): no significant effect on the degree of anti-platelet activity | Platelet Aggregation (mean) ([3]; 3 ng/ml final, 1 Hour in human PPP): 100 % of Control | Platelet Aggregation (mean) ([3]; 3 ng/ml final, 4 Hours in human PPP): 91 % of Control | Platelet Aggregation (mean) ([3]; 3 ng/ml final, 15 Minutes in human PPP): 101 % of Control | Platelet Aggregation (mean) ([3]; 30 ng/ml final, 1 Hour in human PPP): 1 % of Control | Platelet Aggregation (mean) ([3]; 30 ng/ml final, 4 Hours in human PPP): 1 % of Control | Platelet Aggregation (mean) ([3]; 30 ng/ml final, 15 Minutes in human PPP): 1 % of Control | effect of incubation with PPP on anti-platelet activity ([3]; 15 minutes, 1 hour and 4 hours): no significant effect on the anti-platelet activity | concentration inhibiting aggregation by 50% (IC50) [4]: 0.019 ± 0.001 µg/mL | inhibition of platelet aggregation, concentration dependence [4]: concentration dependent inhibition of collagen-induced platelet aggregation | inhibition of aggregation response at highest concentrations ([4]; X 30 and 100 ng/ml, 4 300 μg/ml, 6 3 mg/ml, 7 10 mg/ml): completely inhibited the aggregation response | effect of incubation with PPP on anti-platelet activity [5]: not affected by incubation | effect of incubation with aqueous vehicle/saline/buffer on anti-platelet activity [6]: not affected by incubation | effective life (MAP returning to 50% of baseline value) ([7]; 0.1 mg/kg i.v.): about fifteen | effective life (MAP returning to 50% of baseline value) ([7]; 1.0 mg/kg i.v.): about thirty | decline in MAP ([7]; i.v.): immediate, dose related decline in the MAP; also recorded: substantial dose-related fall in MAP | maximum decline in MAP [7, 9]: about 70 mm Hg | time of maximum decline in MAP [7, 9]: within the first minute | Time of Δmax (superscript) ([8]; 0.1 mg/kg s.c.): 15 min | t1/2 ([8]; 0.1 mg/kg s.c.): 2.75 h | Δmax (Mean Arterial Pressure) ([8]; 0.1 mg/kg s.c.): 46 ± 5 mm Hg | Mean Arterial Pressure ([8]; 0.3 mg/kg s.c.): 101 ± 12 mm Hg | Time of Δmax (superscript) ([8]; 0.3 mg/kg s.c.): 10 min | t1/2 ([8]; 0.3 mg/kg s.c.): 1.33 to 1.83 h | Δmax (Mean Arterial Pressure) ([8]; 0.3 mg/kg s.c.): 52 mm Hg | maximum fall in MAP ([8]; 1 mg/kg s.c.): about 70 mm Hg | time of maximum fall in MAP ([8]; 1 mg/kg s.c.): 15 min | Mean Arterial Pressure ([8]; 1 mg/kg s.c.): 88 ± 5 mm Hg and 98 ± 6 mm Hg | Time of Δmax (superscript) ([8]; 1 mg/kg s.c.): 15 min | t1/2 ([8]; 1 mg/kg s.c.): 2.25 to 4.83 h | Δmax (Mean Arterial Pressure) ([8]; 1 mg/kg s.c.): 71 ± 8 mm Hg | heart rate / tachycardia ([8]; rat, in vivo, sc): dose-dependent increase in heart rate | fall in MAP ([8]; s.c., Compound 4 1-10 mg/kg, Compound X 0.1-1 mg/kg, Compounds 7 and 8 3-30 mg/kg): rapid dose-related fall in MAP
